Reference: paper PMC11637378, “Optogenetic screening of MCT1 activity implicates a cluster of non-steroidal anti-inflammatory drugs (NSAIDs) as inhibitors of lactate transport” (PLOS ONE, 2024)
Several values for one entry are separate records, joined by “and”; a condition that tells them apart may be missing. Equal values may be shown once. Where a name gives a salt, the structure may show the parent alone.

These compounds were tested on parent strain (SAWy518).

Structure (SMILES)	OffScreen_percentage [percentage]	Offscreen_18hr	Offscreen_24hr	Offscreen_42hr	Offtarget	Offtarget_sub	Read_percentage [percentage]
CCCc1c(-c2ccc(O)cc2)nn(-c2ccc(O)cc2)c1-c1ccc(O)cc1	98.9963	0.7989	0.9026	0.9515	–	–	–
CC(C)Cn1c(=O)n(C)c(=O)c2[nH]cnc21 [3-Isobutyl-1-methylxanthine, reference compound]	–	–	–	–	NO	0.4308	–
O=C(/C=C/c1ccccc1)c1ccc(O)cc1 [4'-HYDROXYCHALCONE]	–	0.7341	0.8731	0.9266	–	–	–
O=C(/C=C/c1ccc(O)cc1)c1ccccc1 [4-hydroxychalcone, reference compound]	103.693	0.8368	0.9201	0.9804	–	–	103.693
CC[n+]1c(/C=C/C=C2/N(C)c3ccccc3C2(C)C)sc2ccccc21.[I-] [AC-93253 iodide]	–	0.3559	0.5533	0.821	–	–	–
C[n+]1c2cc(N)ccc2cc2ccc(N)cc21.[Cl-] [ACRIFLAVINIUM HYDROCHLORIDE]	–	0.6168	0.8008	0.904	–	–	–
Nc1c2ccccc2nc2ccccc12 [AMINACRINE]	–	0.3466	0.4931	0.7904	–	–	–
Br.Br.N=C(N)SCCN [AMINOETHYLISOTHIOUREA DIHYDROBROMIDE]	–	0.0502	0.0525	0.1802	–	–	–
C[C@@H]1CC[C@H]2[C@@H](C)C(=O)O[C@@H]3O[C@@]4(C)CC[C@@H]1[C@]32OO4 [ARTEMISININ]	–	0.4969	0.7016	0.8396	–	–	–
O=C1NC(=O)/C(=C/c2ccc(-c3ccc(F)cc3O)o2)S1 [AS-252424]	–	0.6896	0.8289	0.8951	–	–	–
CCCCc1oc2ccccc2c1C(=O)c1cc(I)c(OCCN(CC)CC)c(I)c1 [Amiodarone hydrochloride]	–	0.3754	0.6492	0.9258	–	–	–
N.S=C(S)N1CCCC1 [Ammonium pyrrolidinedithiocarbamate]	–	0.6686	0.8623	0.942	–	–	–
CO[C@H]1O[C@@H]2O[C@@]3(C)CC[C@H]4[C@H](C)CC[C@@H]([C@H]1C)[C@@]24OO3 [Artemether]	–	0.3535	0.4688	0.7035	–	–	–
Cc1ccc(S(=O)(=O)/C=C/C#N)cc1 [BAY 11-7082 (BAY 11-7821)]	–	0.151	0.3413	0.9249	–	–	–
CCCCCCCCCCCCC[N+](C)(C)Cc1ccccc1.[Cl-] [BENZALKONIUM CHLORIDE]	–	0.0504	0.056	0.5903	–	–	–
CCc1oc2ccccc2c1C(=O)c1cc(Br)c(O)c(Br)c1 [BENZBROMARONE]	–	0.5194	0.7137	0.8516	–	–	–
COc1ccc(-c2coc3cc(OC(C)=O)cc(OC(C)=O)c3c2=O)cc1 [BIOCHANIN A DIACETATE]	–	0.8079	0.8835	0.9447	–	–	–
Cc1ccc(S(=O)(=O)/C=C/C#N)cc1 [Bay 11-7082]	–	0.1157	0.2743	0.896	–	–	–
CC(C)(C)c1ccc(S(=O)(=O)/C=C/C#N)cc1 [Bay 11-7085]	–	0.0422 and 0.0395	0.0424 and 0.04	–	–	–	–
Cc1c(N)nc([C@H](CC(N)=O)NC[C@@H](N)C(N)=O)nc1C(=O)N[C@H](C(=O)N[C@@H](C)[C@H](O)[C@@H](C)C(=O)N[C@@H](C(=O)NCCc1nc(-c2nc(C(=O)NCCC[S+](C)C)cs2)cs1)[C@@H](C)O)C(O[C@H]1O[C@H](CO)[C@H](O)[C@@H](O)[C@H]1O[C@H]1O[C@H](CO)[C@@H](O)[C@H](OC(N)=O)[C@@H]1O)c1c[nH]cn1.O=S(=O)([O-])O (some centres unmarked) [Bleomycin sulfate]	–	0.261	0.4579	0.8554	–	–	–
CC(C(=O)O)c1ccc2c(c1)[nH]c1ccc(Cl)cc12 (centres unmarked) [CARPROFEN]	–	0.7281	0.8523	0.8964	–	–	–
O=C1C(Cl)=C(Cl)C(=O)C(Cl)=C1Cl [CHLORANIL]	–	0.1832	0.4077	0.9247	–	–	–
N#Cc1c(Cl)c(Cl)c(Cl)c(C#N)c1Cl [CHLOROTHALONIL]	–	0.6512	0.8372	0.9297	–	–	–
Clc1ccccc1C(c1ccccc1)(c1ccccc1)n1ccnc1 [CLOTRIMAZOLE]	–	0.0789	0.1029	0.8087	–	–	–
Oc1c(Cl)cc(Cl)c2cccnc12 [Capitrol]	–	0.0472	0.0467	0.0526	–	–	–

Structure (SMILES)	OffScreen_percentage [percentage]	Offscreen_18hr	Offscreen_24hr	Offscreen_42hr	Offtarget	Offtarget_sub	Read_percentage [percentage]
[H]/N=C(\N/C(=N/[H])NCCCCCCNC(=N)NC(=N)Nc1ccc(Cl)cc1)Nc1ccc(Cl)cc1 [Chlorhexidine hydrochloride]	–	0.5517	0.7908	0.9568	–	–	–
CCN(CC)CCOc1ccc(C(=C(Cl)c2ccccc2)c2ccccc2)cc1 [Clomifene citrate]	–	0.6687	0.875	0.9713	–	–	–
N#Cc1ccc(Oc2ccc3c(c2)COB3O)cc1 [Crisaborole]	–	0.594	0.7965	0.9431	–	–	–
Oc1ccc(Cl)cc1Cc1cc(Cl)ccc1O [DICHLOROPHEN]	–	0.5869	0.7921	0.8823	–	–	–
C=CC(C1=CC(=O)C(OC)=CC1=O)c1ccc(O)cc1 (centres unmarked) [Dalbergione,4-methoxy-4-hydroxy-]	102.367	0.8261	0.9183	0.9703	–	–	102.367
CCN(CC)C(=S)SSC(=S)N(CC)CC [Disulfiram]	–	0.0526	0.0614	0.7775	–	–	–
COc1cccc2c1C(=O)c1c(O)c3c(c(O)c1C2=O)C[C@@](O)(C(=O)CO)C[C@H]3O[C@H]1C[C@H](N)[C@H](O)[C@H](C)O1.Cl [Doxorubicin (Adriamycin)]	–	0.4346	0.6005	0.8771	–	–	–
O=c1c2ccccc2[se]n1-c1ccccc1 [EBSELEN]	–	0.0405	0.0408	0.0412	–	–	–
C=CCOC(Cn1ccnc1)c1ccc(Cl)cc1Cl.O=S(=O)(O)O (centres unmarked) [ENILCONAZOLE SULFATE]	–	0.81	0.8908	0.9485	–	–	–
O=C([O-])c1ccccc1-c1c2cc(I)c(=O)c(I)c-2oc2c(I)c([O-])c(I)cc12.[Na+].[Na+] [ERYTHROSINE SODIUM]	–	0.8136	0.8985	0.9466	–	–	–
O=C(O)Cc1ccc(-c2ccccc2)cc1 [FELBINAC]	–	0.6742	0.7657	0.7971	–	–	–
OC(Cn1cncn1)(Cn1cncn1)c1ccc(F)cc1F [FLUCONAZOLE]	–	0.7681	0.8873	0.9468	–	–	–
Nc1[nH]c(=O)ncc1F [FLUCYTOSINE]	–	0.7196	0.8771	0.9452	–	–	–
CCCCCCCCc1ccc(CCC(N)(CO)CO)cc1.Cl [Fingolimod (FTY720)]	–	0.0535	0.0624	0.7799	–	–	–
COc1ncc(-c2ccc3nccc(-c4ccnnc4)c3c2)cc1NS(=O)(=O)c1ccc(F)cc1F [GSK2126458 (GSK458)]	–	0.433	0.6688	0.9364	–	–	–
CCCCCCc1ccc(O)cc1O [HEXYLRESORCINOL]	–	0.6446	0.822	0.8874	–	–	–
O=C(Nc1cc(C(F)(F)F)cc(C(F)(F)F)c1)c1cc(Cl)ccc1O [IMD 0354]	–	0.1675	0.2933	0.8452	–	–	–
CCC(Cc1c(I)cc(I)c(N)c1I)C(=O)O (centres unmarked) [IOPANIC ACID]	–	0.6491	0.7855	0.8261	–	–	–
Oc1ccc2ccccc2c1SSc1c(O)ccc2ccccc12 [IPA-3]	–	0.0457	0.0481	0.1263	–	–	–
CCC(C)n1ncn(-c2ccc(N3CCN(c4ccc(OC[C@H]5CO[C@](Cn6cncn6)(c6ccc(Cl)cc6Cl)O5)cc4)CC3)cc2)c1=O.Cl.Cl (some centres unmarked) [ITRACONAZOLE HYDROCHLORIDE]	–	0.8063	0.8859	0.9404	–	–	–
CC(=O)[C@]1(O)Cc2c(O)c3c(c(O)c2[C@@H](O[C@H]2C[C@H](N)[C@H](O)[C@H](C)O2)C1)C(=O)c1ccccc1C3=O [Idarubicin HCl]	–	0.1605	0.1891	0.402	–	–	–
CC(=O)[C@]1(O)Cc2c(O)c3c(c(O)c2[C@@H](O[C@H]2C[C@H](N)[C@H](O)[C@H](C)O2)C1)C(=O)c1ccccc1C3=O [Idarubicin]	–	0.154	0.1842	0.3602	–	–	–
O=C1Nc2ccccc2/C1=C1/Nc2ccccc2/C1=N\O [Indirubin-3'-oxime]	–	0.6559	0.8248	0.9006	–	–	–
CC(C)NNC(=O)c1ccncc1.O=P(O)(O)O [Iproniazid phosphate, reference compound]	–	–	–	–	NO	0.4143	–
CCC(C)n1ncn(-c2ccc(N3CCN(c4ccc(OC[C@H]5CO[C@](Cn6cncn6)(c6ccc(Cl)cc6Cl)O5)cc4)CC3)cc2)c1=O (some centres unmarked) [Itraconazole (Sporanox)]	–	0.7339	0.8546	0.8998	–	–	–
